Consider 20 compounds from patent US20240287071A1, “CLASS OF IMIDAZOLIDINOPYRIMIDONE COMPOUNDS AND USE THEREOF IN TREATMENT OF HSCLPP-MEDIATED DISEASES” (SICHUAN UNIVERSITY, priority 2021, published 2024).

Read-outs that look alike come from different tables or passages of the source.

The subject of one experiment is HCT116. Kind of experiment: CCK-8 in vitro anti-tumor proliferation assay. It is filed as cell-based. The following applies: Homo sapiens, HCT-116, 72 hours. As to the method: (§1) Example 3: In vitro anti-tumor proliferation assay of the compounds. The purpose of this experiment was to use CCK-8 to detect the in vitro inhibitory activity of the compounds of the present invention against the proliferation of tumor cells. The main reagents, such as RPMI-1640, DMEM high-glucose culture medium, fetal bovine serum, trypsin, etc., were purchased from Gibco BRL. CCK8 and DMSO were products of Sigma. For in vitro experiment, the test compounds were prepared as 10 mM stock solutions in DMSO and stored at −20° C. in the refrigerator in the dark for later use, then diluted to desired concentration with complete culture medium before use. The human lung cancer cells, colon cancer cells, breast cancer cells, glioblastoma cells, human myelomonocytic leukemia cells, and human Burkitt's lymphoma cells used in this experiment were all purchased from the American ATCC company and preserved in laboratory of the inventors. All the above cell lines were cultured in RPMI-1640 complete medium or DMEM complete medium containing 10% fetal bovine serum, 100 U/mL penicillin, and 100 μg/mL streptomycin under 5% carbon dioxide, 37° C. conditions. […] The previous culture medium was discarded, fresh culture medium was added to resuspend the cells, and then the cells were counted. According to the growth rate of different cells, the cell seeding concentration was determined, generally being 3000-5000 cells/well. After determining the seeding concentration, the cell suspension was diluted to desired concentrations with fresh culture medium, and then added to a 96-well plate with 100 μL per well, and 200 μL of PBS was added to the edge wells to prevent evaporation of the culture medium. On the second day, drug treatment was performed. First, the compounds were diluted into a series of gradients with culture medium, and then the drug solution was added to the 96-well plate, with 3 parallel wells for each gradient. Each plate set a blank control group, and ONC201 was used as the positive control group.

In a further experiment the target is HsClpP (Homo sapiens, UniProt Q16740). The experiment in a line: HsClpP enzyme hydrolysis of short peptide substrate AC-WLA-AMC. The settings on record: for Regulatory efficacy 1 μM / Regulatory efficacy 10 μM: promoting hydrolysis of short peptide substrate by HsClpP, relative to blank control.
Sequence of HsClpP (Q16740 57-277): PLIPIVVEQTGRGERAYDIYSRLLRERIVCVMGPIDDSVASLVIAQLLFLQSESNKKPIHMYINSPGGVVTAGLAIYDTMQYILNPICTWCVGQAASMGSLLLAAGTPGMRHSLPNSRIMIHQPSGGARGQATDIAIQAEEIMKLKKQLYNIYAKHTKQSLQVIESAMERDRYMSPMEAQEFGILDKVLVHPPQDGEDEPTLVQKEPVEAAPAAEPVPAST
Another experiment relates to HCT115. Kind of experiment: CCK-8 in vitro anti-tumor proliferation assay. It is filed as cell-based. The settings on record: Homo sapiens; Table 4; 72 hours. As to the method: as §1
Another experiment concerns SW480. Kind of experiment: CCK-8 in vitro anti-tumor proliferation assay. It is filed as cell-based. The following applies: Homo sapiens, Table 4, 72 hours. On the procedure:
as §1

The test system of another experiment is DLD1. Kind of experiment: CCK-8 in vitro anti-tumor proliferation assay. It is filed as cell-based. The following applies: Homo sapiens, DLD-1; Table 4; 72 hours; read-out: IC50 ( M) DLD1. On the procedure: as §1
For the next experiment, the system named is HT29. Kind of experiment: CCK-8 in vitro anti-tumor proliferation assay. It is filed as cell-based. The settings on record: Homo sapiens, HT-29; Table 4; 72 hours. On the procedure: as §1
The test system of another experiment is SW620. The experiment in a line: CCK-8 in vitro anti-tumor proliferation assay. It is filed as cell-based. The following applies: Homo sapiens, SW-620; Table 4; 72 hours; read-out: IC50 ( M) SW620. As to the method:
as §1

The mark [1] stands for this setting: Table 5, HCT116, read-out: IC50.

One may read the IC50 as the concentration that inhibits the measured activity by half. In the case of `CN1CCn2c1nc(=O)c1c2CCN(Cc2ccccc2)C1` [Compound 2, 7-benzyl-3-methyl-2,3,6,7,8,9-hexahydroimidazo[1,2-a]pyrido[3,4-e]pyrimidin-5(1H)-one], the IC50 with HCT116 (setting [1]) is above 1e-05 M. On HsClpP, the “Regulatory efficacy 1 μM” value is “+ (+ indicating that the increased efficacy is less than 50% of the blank control group)” and the “Regulatory efficacy 10 μM” value is given as “+ (+ indicating that the increased efficacy is less than 50% of the blank control group)”.
`O=c1nc2n(c3c1CN(Cc1ccccc1)CC3)CCN2CC1CC1` [Compound 5, 7-benzyl-3-cyclopropylmethyl-2,3,6,7,8,9-hexahydroimidazo[1,2-a]pyrido[3,4-e]pyrimidin-5(1H)-one]: the IC50 in the experiment on HCT116 (setting [1]) is above 1e-05 M. Also, on HsClpP, the “Regulatory efficacy 1 μM” value was “+ (+ indicating that the increased efficacy is less than 50% of the blank control group)” and the “Regulatory efficacy 10 μM” value is “+ +”.
The like results for `O=c1nc2n(c3c1CN(Cc1ccccc1)CC3)CCN2CC1CCCCC1` [Compound 6, 7-benzyl-3-cyclohexylmethyl-2,3,6,7,8,9-hexahydroimidazo[1,2-a]pyrido[3,4-e]pyrimidin-5(1H)-one] were, in that order, 2.5e-06 M, “+ +” and “+ +”.
As for `O=c1nc2n(c3c1CN(Cc1ccccc1)CC3)CCN2Cc1ccccc1` [Compound 7, 7-benzyl-3-benzyl-2,3,6,7,8,9-hexahydroimidazo[1,2-a]pyrido[3,4-e]pyrimidin-5(1H)-one], the IC50 in the experiment on HCT116 (setting [1]) turned out to be 5e-07 M. On HsClpP, the “Regulatory efficacy 1 μM” value was “+ +” and the “Regulatory efficacy 10 μM” value is on record as “+ +”.
As to `O=c1nc2n(c3c1CN(Cc1ccccc1)CC3)CCN2Cc1ccc2ccccc2c1` [Compound 8, 7-benzyl-3-(2-naphthylmethyl)-2,3,6,7,8,9-hexahydroimidazo[1,2-a]pyrido[3,4-e]pyrimidin-5(1H)-one], the IC50 in the experiment on HCT116 (setting [1]) was 3e-07 M. In addition, on HsClpP, the “Regulatory efficacy 1 μM” value is listed as “+ +” and the “Regulatory efficacy 10 μM” value is listed as “+ +”.
Consider `Cc1cccc(CN2CCn3c2nc(=O)c2c3CCN(Cc3ccccc3)C2)c1` [Compound 11, 7-benzyl-3-(3-methylbenzyl)-2,3,6,7,8,9-hexahydroimidazo[1,2-a]pyrido[3,4-e]pyrimidin-5(1H)-one], for which the IC50 in the experiment on HCT116 (setting [1]) amounted to 3e-07 M. On HsClpP, the “Regulatory efficacy 1 μM” value is on record as “+ +” and the “Regulatory efficacy 10 μM” value is “+ +”.
Take `Cc1ccc(CN2CCn3c2nc(=O)c2c3CCN(Cc3ccccc3)C2)cc1` [Compound 12, 7-benzyl-3-(4-methylbenzyl)-2,3,6,7,8,9-hexahydroimidazo[1,2-a]pyrido[3,4-e]pyrimidin-5(1H)-one]: the IC50 with HCT116 (setting [1]) turned out to be 2e-07 M. Also, on HsClpP, the “Regulatory efficacy 1 μM” value was “+ +” and the “Regulatory efficacy 10 μM” value is recorded as “+ +”.
For the compound `COc1ccccc1CN1CCn2c1nc(=O)c1c2CCN(Cc2ccccc2)C1` [Compound 13, 7-benzyl-3-(2-methoxybenzyl)-2,3,6,7,8,9-hexahydroimidazo[1,2-a]pyrido[3,4-e]pyrimidin-5(1H)-one], in the experiment on HCT116 (setting [1]), the IC50 was determined as 1.3e-06 M. Further, at HsClpP, the “Regulatory efficacy 1 μM” value was “+ +” and the “Regulatory efficacy 10 μM” value is given as “+ +”.
In the case of `COc1ccc(CN2CCn3c2nc(=O)c2c3CCN(Cc3ccccc3)C2)cc1` [Compound 14, 7-benzyl-3-(4-methoxybenzyl)-2,3,6,7,8,9-hexahydroimidazo[1,2-a]pyrido[3,4-e]pyrimidin-5(1H)-one], the concentration for half-maximal inhibition (IC50) in the experiment with HCT116 (setting [1]) was found to be 1.2e-06 M. Besides, on HsClpP, the “Regulatory efficacy 1 μM” value is listed as “+ +” and the “Regulatory efficacy 10 μM” value is “+ +”.
What is called EC50 is the concentration that produces a half-maximal response. A higher EC50 goes with a less potent agent. For the compound `O=c1nc2n(c3c1CN(Cc1ccccc1)CC3)CCN2Cc1ccc(F)cc1` [Compound 15, 7-benzyl-3-(4-fluorobenzyl)-2,3,6,7,8,9-hexahydroimidazo[1,2-a]pyrido[3,4-e]pyrimidin-5(1H)-one], the IC50 in the experiment on HCT115 was determined as 200 nM; in the experiment with SW480 it was 170 nM; with DLD1 it was 9e-08 M; with HCT116 (Table 4, read-out: IC50 ( M) HCT116) it was 8e-08 M; with HCT116 (setting [1]), 8e-08 M; in the experiment on HT29, 400 nM. Further, the IC50 in the experiment on SW620 was 1.9e-07 M. Further, the EC50 on HsClpP is 100 nM. The “Regulatory efficacy 1 μM” value at HsClpP was “+ +”. On HsClpP, the “Regulatory efficacy 10 μM” value is “+ +”.
For `O=c1nc2n(c3c1CN(Cc1ccccc1)CC3)CCN2Cc1ccc(Br)cc1` [Compound 17, 7-benzyl-3-(4-bromobenzyl)-2,3,6,7,8,9-hexahydroimidazo[1,2-a]pyrido[3,4-e]pyrimidin-5(1H)-one], in the experiment on HCT116 (setting [1]), the IC50 came to 5e-07 M. On HsClpP, the “Regulatory efficacy 1 μM” value was “+ +” and the “Regulatory efficacy 10 μM” value is on record as “+ +”.
On to `O=c1nc2n(c3c1CN(Cc1ccccc1)CC3)CCN2Cc1ccc(Br)c(F)c1` [Compound 22, 7-benzyl-3-(4-bromo-3-fluorobenzyl)-2,3,6,7,8,9-hexahydroimidazo[1,2-a]pyrido[3,4-e]pyrimidin-5 (1H)-one], for which the IC50 with HCT116 (setting [1]) came out at 8e-08 M. In addition, on HsClpP, the “Regulatory efficacy 1 μM” value was “+ +” and the “Regulatory efficacy 10 μM” value is given as “+ +”.
`O=c1nc2n(c3c1CN(Cc1ccccc1)CC3)CCN2Cc1ccc(Cl)c(Cl)c1` [Compound 26, 7-benzyl-3-(3,4-dichlorobenzyl)-2,3,6,7,8,9-hexahydroimidazo[1,2-a]pyrido[3,4-e]pyrimidin-5(1H)-one]: the IC50 with HCT116 (setting [1]) came to 3e-08 M. Moreover, on HsClpP, the “Regulatory efficacy 1 μM” value is reported as “+ +” and the “Regulatory efficacy 10 μM” value was “+ +”.
Consider `CCN1CCc2c(c(=O)nc3n2CCN3Cc2ccccc2C)C1` [Compound 28, 7-ethyl-3-(2-methylbenzyl)-2,3,6,7,8,9-hexahydroimidazo[1,2-a]pyrido[3,4-e]pyrimidin-5(1H)-one], for which the IC50 in the experiment with HCT116 (setting [1]) was above 1e-05 M. Besides, at HsClpP, the “Regulatory efficacy 1 μM” value was “+ (+ indicating that the increased efficacy is less than 50% of the blank control group)” and the “Regulatory efficacy 10 μM” value is recorded as “+ (+ indicating that the increased efficacy is less than 50% of the blank control group)”.
Take `Cc1cccc(CN2CCc3c(c(=O)nc4n3CCN4Cc3ccccc3C)C2)c1` [Compound 32, 3-(2-methylbenzyl)-7-(3-methylbenzyl)-2,3,6,7,8,9-hexahydroimidazo[1,2-a]pyrido[3,4-e]pyrimidin-5(1H)-one]: the IC50 in the experiment with HCT116 (setting [1]) worked out at 1.5e-06 M. At HsClpP, the “Regulatory efficacy 1 μM” value is “+ +” and the “Regulatory efficacy 10 μM” value was “+ +”.
In the case of `Cc1ccccc1CN1CCn2c1nc(=O)c1c2CCN(Cc2cccc(C#N)c2)C1` [Compound 35, 3-((3-(2-methylbenzyl)-5-oxo-2,3,6,7,8,9-hexahydroimidazo[1,2-a]pyrido[3,4-e]pyrimidin-7(6H)-yl)methyl)benzonitrile], in the experiment on HCT116 (setting [1]), the IC50 was 5e-07 M. On HsClpP, the “Regulatory efficacy 1 μM” value was “+ +” and the “Regulatory efficacy 10 μM” value is on record as “+ +”.
Consider `Cc1ccccc1CN1CCn2c1nc(=O)c1c2CCN(C(=O)c2ccccc2)C1` [Compound 39, 7-benzoyl-3-(2-methylbenzyl)-2,3,6,7,8,9-hexahydroimidazo[1,2-a]pyrido[3,4-e]pyrimidin-5(1H)-one], for which, in the experiment with HCT116 (setting [1]), the IC50 was above 1e-05 M. On HsClpP, the “Regulatory efficacy 1 μM” value is “+ (+ indicating that the increased efficacy is less than 50% of the blank control group)” and the “Regulatory efficacy 10 μM” value is given as “+ (+ indicating that the increased efficacy is less than 50% of the blank control group)”.
As to `O=c1nc2n(c3c1CN(Cc1ccccc1)CC3(F)F)CCN2Cc1ccc(Cl)c(Cl)c1` [Compound 79, 7-Benzyl-3-(3,4-dichlorobenzyl)-9,9-difluoro-2,3,6,7,8,9-hexahydroimidazo[1,2-a]pyrido[3,4-e]pyrimidin-5(1H)-one], at HsClpP, the “Regulatory efficacy 1 μM” value is on record as “+ +” and the “Regulatory efficacy 10 μM” value was “+ +”.
Take `O=c1nc2n(c3c1CN(Cc1ccccc1)CC3(F)F)CCN2Cc1ccc(F)c(F)c1` [Compound 80, 7-Benzyl-3-(3,4-difluorobenzyl)-9,9-difluoro-2,3,6,7,8,9-hexahydroimidazo[1,2-a]pyrido[3,4-e]pyrimidin-5(1H)-one]: at HsClpP, the “Regulatory efficacy 1 μM” value was “+ +” and the “Regulatory efficacy 10 μM” value is “+ +”.
Take `O=c1nc2n(c3c1CN(Cc1ccccc1)CC3(F)F)CCN2Cc1ccc(F)cc1F` [Compound 81, 7-Benzyl-3-(2,4-difluorobenzyl)-9,9-difluoro-2,3,6,7,8,9-hexahydroimidazo[1,2-a]pyrido[3,4-e]pyrimidin-5(1H)-one]: on HsClpP, the “Regulatory efficacy 1 μM” value is recorded as “+ +” and the “Regulatory efficacy 10 μM” value is “+ +”.
